Measured values published in patent US6872690B2, “Herbicidal 2-alkynyl-pyri (mi) dines” (WYETH, priority 2001, dated 2005).

Columns and labels:
Format in all cases: in vivo
[1] = tested on: Abutilon theophrasti; assay: Pre-emergence test; conditions: 0.400 kg/ha, 3 weeks after treatment
Description: (§1) To evaluate their herbicidal activity, compounds according to the invention are tested using a representative range of plants:
(§2) The pre-emergence tests involve spraying a liquid formulation of the compound onto the soil in which the seeds of the plant species mentioned above has recently been sown.
(§3) The soil used in the tests is a prepared horticultural loam. The formulations used in the tests are prepared from solutions of the test compounds in acetone containing 0.4% by weight of an alkyl-phenol/ethylene oxide condensate available under the trade mark TRITON X-155. These acetone solutions are diluted with water and the resulting formulations applied at dosage levels corresponding to 0.013 kg, 0.025 kg, 0.100 kg or 0.400 kg of active material per hectare in a volume equivalent to 900 litres per hectare. In these tests untreated sown soil are used as controls. From 2 to 4 weeks after treatment, the tests are terminated and each pot is examined and rated according to the rating system set forth below: […]

[2] = tested on: Alopecurus myosuroides; assay: Pre-emergence test; conditions: 3 weeks after treatment
Description: as §1, §2, §3

[3] = tested on: Cassia obtusifolia; assay: Pre-emergence test; conditions: 3 weeks after treatment
Description: as §1, §2, §3

[4] = tested on: Digitaria sanguinalis; assay: Pre-emergence test; conditions: 3 weeks after treatment
Description: as §1, §2, §3

[5] = tested on: Echinochloa crus-galli; assay: Pre-emergence test; conditions: 3 weeks after treatment
Description: as §1, §2, §3

[6] = tested on: Galium aparine; assay: Pre-emergence test; conditions: 3 weeks after treatment
Description: as §1, §2, §3

[7] = tested on: Glycine max; assay: Pre-emergence test; conditions: 0.400 kg/ha, 3 weeks after treatment
Description: as §1, §2, §3

[8] = tested on: Ipomoea hederacea; assay: Pre-emergence test; conditions: 0.400 kg/ha, 3 weeks after treatment
Description: as §1, §2, §3

[9] = tested on: Lamium purpureum; assay: Pre-emergence test; conditions: 3 weeks after treatment
Description: as §1, §2, §3

[10] = tested on: Matricaria inodora; assay: Pre-emergence test; conditions: 3 weeks after treatment
Description: as §1, §2, §3

[11] = tested on: Orysa sativa; assay: Pre-emergence test; conditions: 3 weeks after treatment
Description: as §1, §2, §3

[12] = tested on: Setaria viridis; assay: Pre-emergence test; conditions: 3 weeks after treatment
Description: as §1, §2, §3

[13] = tested on: Stellaria media; assay: Pre-emergence test; conditions: 3 weeks after treatment
Description: as §1, §2, §3

[14] = tested on: Triticum aestivum; assay: Pre-emergence test; conditions: 3 weeks after treatment
Description: as §1, §2, §3

[15] = tested on: Zea mays; assay: Pre-emergence test; conditions: 3 weeks after treatment
Description: as §1, §2, §3

[16] = tested on: Abutilon theophrasti; assay: Post-emergence herbicidal activity test; conditions: 2-4 weeks after treatment
Description: as §1
(§4) These acetone solutions are diluted with water and the resulting formulations applied at dosage levels equivalent of about 0.025 to 0. 4 kg per hectare of test compound per pot. After spraying the plants are placed on greenhouse benches and are cared for in the usual manner, commensurate with conventional greenhouse practices. From 2 to 4 weeks after treatment, the seedling plants are examined and rated according to the rating system provided above.

[17] = tested on: Alopecurus myosuroides; assay: Post-emergence herbicidal activity test; conditions: 2-4 weeks after treatment
Description: as §1, §4

[18] = tested on: Cassia obtusifolia; assay: Post-emergence herbicidal activity test; conditions: 2-4 weeks after treatment
Description: as §1, §4

[19] = tested on: Digitaria sanguinalis; assay: Post-emergence herbicidal activity test; conditions: 2-4 weeks after treatment
Description: as §1, §4

[20] = tested on: Echinochloa crus-galli; assay: Post-emergence herbicidal activity test; conditions: 2-4 weeks after treatment
Description: as §1, §4

[21] = tested on: Galium aparine; assay: Post-emergence herbicidal activity test; conditions: 2-4 weeks after treatment
Description: as §1, §4

[22] = tested on: Glycine max; assay: Post-emergence herbicidal activity test; conditions: 2-4 weeks after treatment
Description: as §1, §4

[23] = tested on: Ipomoea hederacea; assay: Post-emergence herbicidal activity test; conditions: 2-4 weeks after treatment
Description: as §1, §4

[24] = tested on: Matricaria inodora; assay: Post-emergence herbicidal activity test; conditions: 2-4 weeks after treatment
Description: as §1, §4

[25] = tested on: Orysa sativa; assay: Post-emergence herbicidal activity test; conditions: 2-4 weeks after treatment
Description: as §1, §4

[26] = tested on: Setaria viridis; assay: Post-emergence herbicidal activity test; conditions: 2-4 weeks after treatment
Description: as §1, §4

[27] = tested on: Stellaria media; assay: Post-emergence herbicidal activity test; conditions: 2-4 weeks after treatment
Description: as §1, §4

[28] = tested on: Triticum aestivum; assay: Post-emergence herbicidal activity test; conditions: 2-4 weeks after treatment
Description: as §1, §4

[29] = tested on: Zea mays; assay: Post-emergence herbicidal activity test; conditions: 2-4 weeks after treatment
Description: as §1, §4

Cn1nc(C(F)(F)F)cc1Oc1cccc(C#Cc2ccccc2)n1 [Example 31]
6 (6-Herbicidal effect): Assessment (pre-emergence application) MATIN ([10]; 0.100 kg/ha) | Assessment (pre-emergence application) SETVI ([12]; 0.100 kg/ha) | Post-emergence application CASOB ([18]; 0.100 kg/ha) | Post-emergence application CASOB ([18]; 0.400 kg/ha) | Post-emergence application GALAP ([21]; 0.400 kg/ha) | Post-emergence application STEME ([27]; 0.400 kg/ha)
1 (1-Trace effect): Assessment (pre-emergence application) ALOMY ([2]; 0.100 kg/ha) | Assessment (pre-emergence application) CASOB ([3]; 0.025 kg/ha) | Assessment (pre-emergence application) GALAP ([6]; 0.025 kg/ha) | Assessment (pre-emergence application) GLXMA [7] | Assessment (pre-emergence application) ORYSA ([11]; 0.100 kg/ha) | Assessment (pre-emergence application) ORYSA ([11]; 0.400 kg/ha) | Assessment (pre-emergence application) ZEAMX ([15]; 0.025 kg/ha) | Post-emergence application ORYSA ([25]; 0.100 kg/ha) | Post-emergence application TRZWA ([28]; 0.100 kg/ha)
0 (0-No effect): Assessment (pre-emergence application) ALOMY ([2]; 0.025 kg/ha) | Assessment (pre-emergence application) ECHCG ([5]; 0.025 kg/ha) | Assessment (pre-emergence application) ORYSA ([11]; 0.025 kg/ha) | Assessment (pre-emergence application) TRZWA ([14]; 0.025 kg/ha) | Assessment (pre-emergence application) TRZWA ([14]; 0.100 kg/ha) | Assessment (pre-emergence application) TRZWA ([14]; 0.400 kg/ha)
8 (8-Approaching complete kill): Assessment (pre-emergence application) DIGSA ([4]; 0.400 kg/ha) | Assessment (pre-emergence application) LAMPU ([9]; 0.100 kg/ha) | Assessment (pre-emergence application) LAMPU ([9]; 0.400 kg/ha) | Assessment (pre-emergence application) SETVI ([12]; 0.400 kg/ha) | Assessment (pre-emergence application) STEME ([13]; 0.100 kg/ha) | Post-emergence application IPOHE ([23]; 0.400 kg/ha)
5 (5-Definite injury): Assessment (pre-emergence application) DIGSA ([4]; 0.100 kg/ha) | Assessment (pre-emergence application) ECHCG ([5]; 0.400 kg/ha) | Post-emergence application ABUTH ([16]; 0.400 kg/ha) | Post-emergence application ALOMY ([17]; 0.400 kg/ha) | Post-emergence application ECHCG ([20]; 0.400 kg/ha) | Post-emergence application SETVI ([26]; 0.100 kg/ha) | Post-emergence application STEME ([27]; 0.100 kg/ha)
9 (9-Complete kill): Assessment (pre-emergence application) STEME ([13]; 0.400 kg/ha)
3 (3-Moderate effect): Assessment (pre-emergence application) ALOMY ([2]; 0.400 kg/ha) | Assessment (pre-emergence application) CASOB ([3]; 0.100 kg/ha) | Assessment (pre-emergence application) CASOB ([3]; 0.400 kg/ha) | Post-emergence application ABUTH ([16]; 0.100 kg/ha) | Post-emergence application ALOMY ([17]; 0.100 kg/ha) | Post-emergence application ECHCG ([20]; 0.100 kg/ha) | Post-emergence application MATIN ([24]; 0.100 kg/ha) | Post-emergence application ZEAMX ([29]; 0.400 kg/ha)
4 (4-Injury): Post-emergence application DIGSA ([19]; 0.100 kg/ha) | Post-emergence application DIGSA ([19]; 0.400 kg/ha) | Post-emergence application GALAP ([21]; 0.100 kg/ha) | Post-emergence application GLXMA ([22]; 0.100 kg/ha) | Post-emergence application GLXMA ([22]; 0.400 kg/ha) | Post-emergence application MATIN ([24]; 0.400 kg/ha)
7 (7-Good herbicidal effect): Assessment (pre-emergence application) LAMPU ([9]; 0.025 kg/ha) | Assessment (pre-emergence application) MATIN ([10]; 0.400 kg/ha) | Post-emergence application IPOHE ([23]; 0.100 kg/ha) | Post-emergence application SETVI ([26]; 0.400 kg/ha)
2 (2-Slight effect): Assessment (pre-emergence application) ABUTH [1] | Assessment (pre-emergence application) DIGSA ([4]; 0.025 kg/ha) | Assessment (pre-emergence application) ECHCG ([5]; 0.100 kg/ha) | Assessment (pre-emergence application) GALAP ([6]; 0.100 kg/ha) | Assessment (pre-emergence application) IPOHE [8] | Assessment (pre-emergence application) MATIN ([10]; 0.025 kg/ha) | Assessment (pre-emergence application) SETVI ([12]; 0.025 kg/ha) | Assessment (pre-emergence application) STEME ([13]; 0.025 kg/ha) | Assessment (pre-emergence application) ZEAMX ([15]; 0.100 kg/ha) | Assessment (pre-emergence application) ZEAMX ([15]; 0.400 kg/ha) | Post-emergence application ORYSA ([25]; 0.400 kg/ha) | Post-emergence application TRZWA ([28]; 0.400 kg/ha) | Post-emergence application ZEAMX ([29]; 0.100 kg/ha)
